Values of other authors as cited in US6750249B1, “Controlled release oral preparations of esculetin and its derivatives” (priority 1998, dated 2004).

System: glycosaminoglycan in the matrix
Conditions: stimulation of interleukin-1 and the like; Japanese Patent Application Laid-open No. 312925/1994

Cc1cc(=O)oc2cc(O)c(O)cc12 [4-methyl esculetin]
depression of a decrease in the amount of glycosaminoglycan in the matrix: strongly depress a decrease in the amount of glycosaminoglycan

O=c1ccc2cc(O)c(O)cc2o1 [esculetin]
depression of a decrease in the amount of glycosaminoglycan in the matrix: strongly depress a decrease in the amount of glycosaminoglycan
